Results reported in patent publication US20070099907A1 (priority 2002, published 2007).
“Also recorded” adds a separate entry of the source.

Columns and labels:
patients who had an ACS = conditions: cited from earlier work
[1] = system: postischemic cardiac dysfunction; conditions: cited from earlier work
[2] = system: patients with acute coronary syndromes without ST-segment elevation; test: Open, randomized, single-blind pilot study of meloxicam added to aspirin and heparin: cardiovascular events; format: in vivo, human
Description: (§1) Patients were recruited from the Centro de Salud and the Centro Modelo de Cardiologia, Tucuman, Argentina. Inclusion criteria were chest pain within the previous 24 hours associated with ST-segment depression (>0.5 mm) and either ECG evidence of ischemia or previously documented coronary artery disease. Exclusion criteria were persistent ST-segment elevation and increased levels of the MB isoenzyme of creatine kinase (CK-MB) consistent with acute myocardial infarction, revascularization procedures within the preceding 6 months, malignancy, pregnancy, renal or hepatic diseases, use of anticoagulant therapy, treatment with anti-inflammatory drugs, or contraindication of the study drugs. […] Both groups received aspirin for 30 days. The dose range was 100 to 300 mg per day at the discretion of the treating physician. CK-MB levels were measured before randomization. Additional assays were performed after an episode of chest pain to confirm the diagnosis of acute MI. All patients received subcutaneous LMWH (either nadroparin 87 IU/kg BID or enoxaparin 1 mg/kg BID) or intravenous UFH given as an initial bolus of 5000 IU followed by continuous infusion at 1000 IU per hour for 7 days or until discharge from the hospital. The activated partial-thromboplastin time (APTT) was used to assess the degree of anticoagulation in patients receiving intravenous unfractionated heparin. Patients were tested every 12 hours on the first day and every 24 hours subsequently. The APTT was maintained in the range 45 to 87 seconds (normal value, 30±5 seconds).
[…] An additional secondary composite variable was determined: MI, death, and all revascularization procedures (percutaneous transluminal coronary angioplasty [PTCA] or coronary artery graft surgery [CABG]). Each component of the primary and secondary outcome variable was also recorded separately. […] Cardiac catheterization was performed at the discretion of treating physicians, but only urgent PTCA and CABG, usually after recurrent angina or MI, were considered as end points. Revascularization procedures were indicated after recurrence of chest pain refractory to medical treatment. During CCU stay and after discharge, all patients were examined for clinical events by an investigator who was unaware of treatment allocation. Patients were also instructed to report any events to study personnel immediately. The diagnostic criteria for MI were chest pain lasting 20 minutes or more with ECG changes and an at least 2-fold elevation of CK-MB. Recurrent angina was defined as recurrence of chest pain with ECG changes refractory to medical therapy (aspirin, heparin, nitroglycerin, and β-blockers).
Relative risks (RRs) and their 95% CI were obtained. The RR reduction (RRR) is defined as 1 minus RR and expressed as percentage. The absolute risk reduction (ARR) was calculated as the difference between the risk in control patients minus the risk in treated patients and expressed as percentage. A multiple logistic regression model was used to determine the predictive value of the variables associated with events at day 90 in the previous univariate analysis. The software used were CSS/Statistics 3.1 (StatSoft Corp) and EPI INFO 6 v.6.04, 1996.

[3] = system: activated partial-thromboplastin time (APTT); test: Activated partial thromboplastin time after unfractionated heparin in the pilot study; format: in vivo, human; conditions: for Activated Partial Thromboplastin Time, Mean ± SD: patients treated with unfractionated heparin; for Activated Partial Thromboplastin Time, Median: unfractionated heparin
Description: as §1
The nature of the quantitative variables distribution was assessed by the Shapiro-Wilk test. Differences between the 2 treatment groups were analyzed by the Student's t test (independent samples) or the Mann-Whitney test, according to the nature of the distribution. Differences in terms of activated partial thromboplastin time after unfractionated heparin were assessed by a 2-way ANOVA model, with repeated measures in one of the factors (Student Newman-Keuls post-hoc test). Univariate associations between qualitative variables were assessed by X^2 (Yates corrected) and Spearman rank-order correlations.

[4] = system: patients with acute coronary syndromes without ST-segment elevation; test: Safety observations in the pilot study; format: in vivo, human; conditions: throughout the course of the study; meloxicam 15 mg/day + aspirin + heparin
Description: as §1, with “An open, randomized, prospective, single-blind pilot study of the use of meloxicam in ACS patients without ST-segment elevation was performed. Patients” for “Patients”, “The activated partial-thromboplastin time (APTT) was used to assess the degree of anticoagulation in patients receiving intravenous unfractionated heparin. Patients were tested every 12 hours on the first day and every 24 hours subsequently. The APTT was maintained in the range 45 to 87 seconds (normal value, 30±5 seconds).” left out

[5] = after bolus intravenous dose of 15 mg meloxicam; cited from earlier work
arthritic patients = conditions: compared to patients treated with naproxen; cited from earlier work
[6] = system: endothelial COX-2 expression; conditions: cited from earlier work
[7] = 90-day follow-up, cumulative, n=60 per group
[8] = 90-day follow-up, meloxicam group vs control
[9] = 90-day follow-up, meloxicam group vs control, listed as meloxicam
[10] = CCU period, meloxicam group vs control
[11] = CCU period, meloxicam group vs control, listed as meloxicam
[12] = CCU period, n=60 per group, listed as meloxicam

In the case of `CC(=O)Oc1ccccc1C(=O)O` [ASA, acetylsalicylic acid], the “reduction of combined incidence of cardiovascular death, MI and stroke” value (patients who had an ACS) is listed as 25% and the “aggravation of postischemic cardiac dysfunction” value [1] is listed as “aggravates postischemic cardiac dysfunction”.

With `Cc1cnc(NC(=O)C2=C(O)c3ccccc3S(=O)(=O)N2C)s1` [Meloxicam, 4-hydroxy-2-methyl-N-(5-methyl-2-thiazolyl)-2H-1,2-benzothiazine-3-carboxamide-1,1-dioxide] the “MI + death + revascularization, % (secondary composite)” value (shortened to “MI + death + revascularization, %”) [2, 7] was 13.3%, the “MI + death + revascularization, n (secondary composite)” value [2, 7] was 8 n and the “Recurrent angina + MI + vascular death, % (primary composite)” value [2, 7] was 21.7%. For the same compound, the “Recurrent angina + MI + vascular death, n (primary composite)” value [2, 7] was 13 n, the “Recurrent angina, %” value [2, 7] was 20.0% and the “Recurrent angina, %” value ([2]; 90-day follow-up, cumulative, n=60 per group, listed as meloxicam) was 20%. The “ARR %, MI + death + revascularization” value [2, 8] was 20.0%, the “ARR %, recurrent angina” value [2, 8] was 23.3% and the “ARR %, revascularization” value [2, 8] was 18.3%. For the same compound, the “RRR (95% CI), recurrent angina” value [2, 8] was 53.8 (17-74) %, the “RRR (95% CI), recurrent angina + MI + vascular death” value [2, 8] was 55.1 (22-74) % and the “RRR (95% CI), revascularization” value [2, 8] was 61.0 (14-82) %. The “RRR (95% CI), MI + death + revascularization” value [2, 9] was 60.1%, the “RRR (95% CI), recurrent angina” value [2, 9] was 53.8% and the “RRR (95% CI), recurrent angina + MI + vascular death” value [2, 9] was 55.1%. The “RRR (95% CI), revascularization” value [2, 9] was 61%, the “Revascularization, %” value ([2]; 90-day follow-up, n=60 per group) was 11.7% and the “Recurrent angina, %” value ([2]; CCU period, meloxicam + aspirin + heparin vs control aspirin + heparin, n=60 per group) was 15.0%. The “ARR %, MI + death + revascularization” value [2, 10] was 16.7%, the “ARR %, all revascularization” value [2, 10] was 15.0% and the “ARR %, recurrent angina” value [2, 10] was 20.0%. For the same compound, the “ARR %, recurrent angina + MI + vascular death” value [2, 10] was 23.3%, the “RRR (95% CI), MI + death + revascularization” value [2, 10] was 62.5 (11-84) % and the “RRR (95% CI), all revascularization” value [2, 10] was 60.1%. The “RRR (95% CI), recurrent angina” value [2, 10] was 57.1 (14-79) %, the “RRR (95% CI), recurrent angina + MI + vascular death” value [2, 10] was 60.8 (23-80) % and the “ARR %, all revascularization” value [2, 11] was 15%. The “ARR %, recurrent angina” value [2, 11] was 20%, the “RRR (95% CI), MI + death + revascularization” value [2, 11] was 62.5% and the “RRR (95% CI), all revascularization” value [2, 11] was 60.8%. For the same compound, the “RRR (95% CI), recurrent angina” value [2, 11] was 57.1%, the “RRR (95% CI), recurrent angina + MI + vascular death” value [2, 11] was 60.8% and the “All revascularization, %” value ([2]; CCU period, n=60 per group) was 10.0%. The “MI + death + revascularization, %” value ([2]; CCU period, n=60 per group) was 10.0%, the “MI + death + revascularization, n (secondary composite)” value ([2]; CCU period, n=60 per group) was 6 n and the “Recurrent angina + MI + vascular death, % (primary composite)” value ([2]; CCU period, n=60 per group) was 15.0%. The “Recurrent angina + MI + vascular death, n (primary composite)” value ([2]; CCU period, n=60 per group) was 9 n, the “MI + death + revascularization, %” value [2, 12] was 10% and the “Recurrent angina + MI + vascular death, % (primary composite)” value [2, 12] was 15%. The “patients reaching the additional secondary outcome variable (MI, death, revascularization)” value ([2]; at 30 days) was 11.7%, the “patients reaching the primary outcome variable (recurrent angina, MI, or death)” value ([2]; at 30 days) was 20.0% and the “improvement of the ARR in recurrent angina” value ([2]; during the 30-day treatment period) was 3.3%. The “decrease of the triple end points (recurrent angina, MI and vascular death or MI, death and coronary revascularization procedures)” value ([2]; meloxicam with aspirin and heparin, ACS without ST-segment elevation) was 60%, the “patients reaching the primary outcome variable (recurrent angina, MI, or death)” value ([2]; within 48 hours of randomization) was 1.7% and the “Activated Partial Thromboplastin Time, Mean ± SD” value ([3]; Day 1) was 55.8 ± 26.4 s. For the same compound, the “Activated Partial Thromboplastin Time, Median” value ([3]; Day 1) was 48 s, the “Activated Partial Thromboplastin Time, Mean ± SD” value ([3]; Day 2) was 69.6 ± 19.9 s and the “Activated Partial Thromboplastin Time, Median” value ([3]; Day 2) was 62 s. The “Activated Partial Thromboplastin Time, Mean ± SD” value ([3]; Day 3) was 89.9 ± 24.4 s, the “Activated Partial Thromboplastin Time, Median” value ([3]; Day 3) was 86 s and the “Activated Partial Thromboplastin Time, Mean ± SD” value ([3]; Day 4, control vs meloxicam P < 0.05) was 89.3 ± 20.8 s. For the same compound, the “Activated Partial Thromboplastin Time, Median” value ([3]; Day 4) was 84.5 s, the “adverse complications (bleeding complications, side effects, intolerance)” value [4] was “No adverse complications; also recorded: No bleeding complications, side effects, or intolerance” and the Cmax [5] was 3000 ng/mL. The tmax [5] was 3 min.

For `CS(=O)(=O)c1ccc(C2=C(c3ccccc3)C(=O)OC2)cc1` [rofecoxib], the “risk of heart attack” value (arthritic patients) is listed as “five-fold higher risk of heart attack”.

For `CC(=O)Oc1cc(C(F)(F)F)ccc1C(=O)O` [triflusal], the “inhibitory activity against endothelial COX-2 expression” value [6] is given as “very little inhibitory activity”.
